Results on 22 molecules are retold here after patent US7186743B2, “Substituted pyrazolyl compounds for the treatment of inflammation” (Pharmacia Corporation, priority 2001, dated 2007).

For the test, the target named is T1, IKK2 (Homo sapiens, UniProt O14920).
T1 construct: made in house; host or cells: insect cells (baculovirus, pFastBac; SF9)
T1 sequence (O14920 1-756): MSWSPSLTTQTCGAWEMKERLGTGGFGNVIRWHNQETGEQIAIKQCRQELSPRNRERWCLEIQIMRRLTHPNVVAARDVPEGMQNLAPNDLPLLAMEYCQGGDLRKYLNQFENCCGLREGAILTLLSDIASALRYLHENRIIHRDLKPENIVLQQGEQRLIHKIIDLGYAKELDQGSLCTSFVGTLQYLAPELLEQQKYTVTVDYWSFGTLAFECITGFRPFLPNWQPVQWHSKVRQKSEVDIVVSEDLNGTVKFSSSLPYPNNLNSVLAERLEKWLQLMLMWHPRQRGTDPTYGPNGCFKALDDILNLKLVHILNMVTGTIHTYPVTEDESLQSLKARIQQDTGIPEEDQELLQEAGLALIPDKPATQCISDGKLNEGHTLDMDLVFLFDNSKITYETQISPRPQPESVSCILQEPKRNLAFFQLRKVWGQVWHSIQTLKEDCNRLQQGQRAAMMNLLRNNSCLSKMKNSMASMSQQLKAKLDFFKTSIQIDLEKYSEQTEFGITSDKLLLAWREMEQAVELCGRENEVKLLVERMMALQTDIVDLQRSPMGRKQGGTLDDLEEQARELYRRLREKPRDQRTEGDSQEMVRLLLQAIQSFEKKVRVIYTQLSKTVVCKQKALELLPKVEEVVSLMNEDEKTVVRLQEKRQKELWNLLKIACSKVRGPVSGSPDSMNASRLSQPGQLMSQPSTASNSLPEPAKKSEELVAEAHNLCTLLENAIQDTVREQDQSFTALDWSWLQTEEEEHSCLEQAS
In words: IKKβ Resin Enzyme Assay (IKK2 resin). It is filed as biochemical. The source says: cDNAs of human IKK1 and IKK2 were amplified by reverse transcriptase-polymerase chain reaction from human placental RNA (Clonetech). hIKK1 was subcloned into pFastBac HTa (Life Technologies) and expressed as N-terminal His6-tagged fusion protein. The hIKK2 cDNA was amplified using a reverse oligonucleotide primer which incorporated the peptide sequence for a FLAG-epitope tag at the C-terminus of the IKK2 coding region ([…]). The hIKK2:FLAG cDNA was subcloned into the baculovirus vector pFastBac. The rhIKK2 ([…]) mutant was constructed in the same vector used for wild type rhIKK2 using a QuikChange™ mutagenesis kit (Stratagene). Viral stocks of each construct were used to infect insect cells grown in 40 L suspension culture. […] Cell lysates were stored at −80° C. until purification of the recombinant proteins was undertaken as described below.
A 10-liter culture of baculovirus-expressing IKK2 tagged with FLAG peptide was centrifuged and the cell pellet (MOI=0.1 and I=72 hrs) was re-suspended in buffer A. These cells were microfluidized, and centrifuged at 100,000×g for 45 min. Supernatant was passed over a G-25 column equilibrated with Buffer A. Protein peak was collected and incubated with anti-FLAG affinity resin on a rotator overnight in buffer B. The resin was washed in batch with 10–15 bed volumes of buffer C. Washed resin was poured into a column and rhIKK2 homodimer was eluted using 5 bed volumes of buffer B containing FLAG peptide. 5 mM DTT, 0.1% NP-40 and BSA (concentrated to 0.1% in final amount) was added to the eluted enzyme before concentrating in using an Amicon membrane with a molecular weight cut-off of 30 kDa. Enzyme was aliquoted and stored at −80° C.
IKKβ kinase activity was measured using a biotinylated IκBα peptide ([…]32-Gly-Leu-Asp-Ser36-Met-Lys-Asp-Glu-Glu) (American Peptide Co.). […] ATP (Amersham) (about 1×10^5 cpm), 1 μM ATP (Sigma), 1 mM DTT (Sigma), 2 mM MgCl2 (Sigma), 2 mM MnCl2 (Sigma), 10 mM NaF (Sigma), 25 mM Hepes (Sigma) buffer, pH 7.6 and 20 μl enzyme solution and 10 ul inhibitor in a final volume of 50 μl. After incubation at 25° C. for 30 min, 150 μl resin (Dowex anion-exchange resin AG1X8 200–400 mesh) in 900 mM formate, pH 3.0 was added to each well to stop the reaction. Resin was allowed to settle for one hour and 50 ul of supernatant was removed to a Micolite-2 flat bottom plate (Dynex). 150 μl of scintillation fluid (Microscint 40) (Packard) was added to each well. Incorporation of [γ-^33P] ATP was measured using a Top-Count NXT (Packard).

[1] abbreviates: Table 10, read-out: IKK2 Resin IC50.
The mark [2] stands for this setting: Table 3, read-out: IKK Resin IC50.
Where [3] appears, read: Table 6, read-out: IKK2 Resin IC 50.
[4] abbreviates: Table 14, read-out: IKK2 Resin IC50.
Where [5] appears, read: Table 4, read-out: IKK2 Resin IC50.

Read-outs that look alike come from different tables or passages of the source.

On to `COc1ccc(C(=O)Nc2ccc3c(c2)-c2c(c(C(N)=O)nn2-c2cccc(O)c2)CC3)c(Cl)c1` [Example 283, 8-[(2-chloro-4-methoxybenzoyl)ammo]-1-(3-hydroxyphenyl)-4,5-dihydro-1H-benzo[g]indazole-3-carboxamide], for which, under setting [1], the IC50 is ≤ 1 µM.
With `CS(=O)(=O)c1ccc(-n2nc(C(N)=O)c3c2-c2cc(NC(=O)c4cc(Cl)ccc4[N+](=O)[O-])ccc2CC3)cc1` [Example 139, 8-[(5-chloro-2-nitrobenzoyl)amino]-1-[4-(methylsulfonyl)phenyl]-4,5-dihydro-1H-benzo[g]indazole-3-carboxamide], the IC50 under setting [2] is ≤ 1 µM.
For the molecule `NC(=O)c1nn(-c2ccc(F)cc2)c2c1CCc1ccc(NC(=O)c3cc(N)ccc3Cl)cc1-2` [Example 236, 8-[(5-amino-2-chlorobenzoyl)amino]-1-(4-fluorophenyl)-4,5-dibydro-1H-benzo[g]indazole-3-carboxamide], the IC50 under setting [3] is ≤ 1 µM.
With `NC(=O)c1nn(-c2ccccc2F)c2c1CCc1ccc(NC(=O)c3ccccc3Cl)cc1-2` [Example 341, 8-[(2-chlorobenzoyl)amino]-1-(2-fluorophenyl)-4,5-dihydro-1H-benzo[g]indazole-3-carboxamide], the IC50 under setting [4] was ≤ 1 µM.
For the molecule `NC(=O)c1nn(-c2ccc(N)cc2)c2c1CCc1ccc(NC(=O)c3ccccc3Cl)cc1-2` [Example 370, 1-(4-aminophenyl)-8-[(2-chlorobenzoyl)amino]-4,5-dihydro-1H-benzo[g]indazole-3-carboxamide], the IC50 (Table 15, read-out: IKK2 Resin IC50) was ≤ 1 µM.
In the case of `Cc1ccc(C(=O)Nc2ccc3c(c2)-c2c(c(C(N)=O)nn2-c2ccc4c(c2)OCO4)CC3)c(Cl)n1` [Example 167, 1-(1,3-benzodioxol-5-yl)-8-{[(2-chloro-6-methylpyridin-3-yl)carbonyl]amino}-4,5-dihydro-1H-benzo[g]indazole-3-carboxamide], the IC50 under setting [5] is ≤ 1 µM.
Regarding `CS(=O)(=O)c1ccc(-n2nc(C(N)=O)c3c2-c2cc(NC(=O)c4ccc(C#N)cc4)ccc2CC3)cc1` [Example 144, 8-[(4-cyanobenzoyl)amino]-1-[4-(methylsulfonyl)phenyl]-4,5-dihydro-1H-benzo[g]indazole-3-carboxaniide], under setting [2], the IC50 is ≤ 1 µM.
In the case of `NC(=O)c1nn(-c2ccc(F)cc2)c2c1CCc1ccc(NC(=O)c3ccccc3Cl)cc1-2` [Example 230, 8-[(2-chlorobenzoyl)amino]-1-(4-fluorophenyl)-4,5-dihydro-1H-benzo[g]indazole-3-carboxamide], under setting [3], the IC50 was ≤ 1 µM.
On to `CCS(=O)(=O)c1ccc(-n2nc(C(N)=O)c3c2-c2cc(NC(=O)c4cc(NC(C)=O)ccc4Cl)ccc2CC3)cc1` [Example 392, 8-{[5-(acetylamino)-2-chlorobenzoyl]amino}-1-[4-(ethylsulfonyl)phenyl]-4,5-dihydro-1H-benzo[g]indazole-3-carboxamide], for which the IC50 (Table 18, read-out: IKK2 Resin IC50) is ≤ 1 µM.
`NC(=O)c1nn(-c2ccc(F)cc2)c2c1CCc1ccc(NC(=O)c3cc(Cl)cnc3Cl)cc1-2` [Example 223, 8-{[(2,5-dichloropyridin-3-yl)carbonyl]amino}-1-(4-fluorophenyl)-4,5-dihydro-1H-benzo[g]indazole-3-carboxamide]: under setting [3], the IC50 was ≤ 1 µM.
Still for that read-out and setting: to `NC(=O)c1nn(-c2ccc(F)cc2)c2c1CCc1ccc(NC(=O)c3ccc(C(F)(F)F)nc3Cl)cc1-2` [Example 234, 8-({[2-chloro-6-(trifluoromethyl)pyridin-3-yl]carbonyl}amino)-1-(4-fluorophenyl)-4,5-dihydro-1H-benzo[g]indazole-3-carboxamide] belongs ≤ 1 µM.
For `NC(=O)c1nn(-c2ccc(F)c(F)c2)c2c1CCc1ccc(NC(=O)c3ccccc3Cl)cc1-2` [Example 363, 8-[(2-chlorobenzoyl)amino]-1-(3,4-difluorophenyl)-4,5-dihydro-1H-benzo[g]indazole-3-carboxamide], the IC50 under setting [4] was ≤ 1 µM.
On to `COc1ccc(C(=O)Nc2ccc3c(c2)-c2c(c(C(N)=O)nn2-c2ccc4c(c2)OCO4)CC3)c(Cl)c1OC` [Example 175, 1-(1,3-benzodioxol-5-yl)-8-[(2-chloro-3,4-dimethoxybenzoyl)amino]-4,5-dihydro-1H-benzo[g]indazole-3-carboxamide], for which the IC50 under setting [5] is ≤ 1 µM.
Regarding `COc1ccc(C(=O)Nc2ccc3c(c2)-c2c(c(C(N)=O)nn2-c2cccc(O)c2)CC3)c(Cl)c1OC` [Example 286, 8-[(2-chloro-3,4-dimethoxybenzoyl)amino]-1-(3-hydroxyphenyl)-4,5-dihydro-1H-benzo[g]indazole-3-carboxamide], the IC50 under setting [1] was ≤ 1 µM.
Consider `CN(C)c1ccc(Cl)c(C(=O)Nc2ccc3c(c2)-c2c(c(C(N)=O)nn2-c2ccc4c(c2)OCO4)CC3)c1` [Example 183, 1-(1,3-benzodioxol-5-yl)-8-{[2-chloro-5-(dimethylamino)benzoyl]amino}-4,5-dihydro-1H-benzo[g]indazole-3-carboxamide], for which, under setting [5], the IC50 was ≤ 1 µM.
In the case of `Cc1ccccc1C(=O)Nc1ccc2c(c1)-c1c(c(C(N)=O)nn1-c1ccc(F)cc1)CC2` [Example 240, 1-(4-fluorophenyl)-8-[(2-methylbenzoyl)amino]-4,5-benzo[g]indazole-3-dihydro-1H-carboxamide], under setting [3], the IC50 was ≤ 1 µM.
For the molecule `CS(=O)(=O)c1ccc(-n2nc(C(N)=O)c3c2-c2cc(NC(=O)c4ccccc4Cl)ccc2CC3)cc1` [Example 95, 8-[(2-chlorobenzoyl)animo]-1-[4-(methylsulfonyl)phenyl]-4,5-dihydro-1H-benzo[g]indazole-3-carboxamide], the IC50 (Table 2, read-out: IKK Resin IC50) was ≤ 1 µM.
Turning to `NC(=O)c1nn(-c2ccc(/C=C/C(=O)O)cc2)c2c1CCc1ccc(NC(=O)c3ccccc3Cl)cc1-2` [Example 291, (2E)-3-(4-{3-(aminocarbonyl)-8-[(2-chlorobenzoyl)amino]-4,5-dihydro-1H-benzo[g]indazol-1-yl}phenyl)prop-2-enoic acid], under “Table 11, read-out: IKK2 Resin IC50”, the IC50 was ≤ 1 µM.
As for `NC(=O)c1nn(-c2ccc3c(c2)OCO3)c2c1CCc1ccc(NC(=O)c3cccc(Cl)c3Cl)cc1-2` [Example 194, 1-(1,3-benzodioxol-5-yl)-8-[(2,3-dichlorobenzoyl)amino]-4,5-dihydro-1H-benzo[g]indazole-3-carboxamide], the IC50 under setting [5] was ≤ 1 µM.
Turning to `NC(=O)c1nn(-c2ccncc2)c2c1CCc1ccc(NC(=O)c3ccccc3Cl)cc1-2` [Example 338, 8-[(2-chlorobenzoyl)amino]-1-pyridin-4-yl-4,5-dihydro-1H-benzo[g]mdazole-3-carboxamide], the IC50 under setting [4] was ≤ 1 µM.
Consider `CC1(C)OCC(COc2cccc(-n3nc(C(N)=O)c4c3-c3cc(NC(=O)c5ccncc5Cl)ccc3CC4)c2)O1` (stereo not shown) [Example 275, 8-[(3-chloroisonicotinoyl)amino]-1-{3-[(2,2-dimethyl-1,3-dioxolan-4-yl)methoxy]phenyl}-4,5-dihydro-1H-benzo[g]indazole-3-carboxamide], for which the IC50 (Table 9, read-out: IKK2 Resin IC50) is 1 to 10 µM.
Consider `NC(=O)c1nn(-c2ccccc2)c2c1CCc1ccc(NC(=O)c3ccncc3Cl)cc1-2` [Example 331, 8-[(3-chloroisonicotinoyl)amino]-1-phenyl-4,5-dihydro-1H-benzo[g]indazole-3-carboxamide], for which the IC50 under setting [4] is ≤ 1 µM.
